The results in this text go back to ChEMBL document CHEMBL5230100, “Novel quinazoline-based EGFR kinase inhibitors: A review focussing on SAR and molecular docking studies (2015-2019)” (Eur J Med Chem, 2020).

In experiment [1] the test system is A549. Briefly: Induction of apoptosis in human A549 cells assessed as late apoptotic cells measured after 48 hrs by Annexin V-FITC/ Propidium iodide staining based flow cytometry relative to control. The format is functional.
Experiment [2] has as its target T1, Receptor tyrosine-protein kinase erbB-2 (Homo sapiens, UniProt P04626).
The target in experiment [3] is T2, Epidermal growth factor receptor (Homo sapiens, UniProt P00533). Put plainly: Inhibition of human EGFR incubated for 1 hrs in presence of ATP by ELISA assay.
In experiment [4] the test system is A549. Briefly: Anticancer activity against human A549 cells assessed as cell growth inhibition incubated for 24 hrs by MTT assay. In kind it is functional, cell-based. The conditions noted are these: A549, 24 h. (In general: Tetrazolium assays rely on reduction of a dye to a coloured formazan, in cell work by metabolically active cells.)
Experiment [5] concerns A549. Put plainly: cells. The format is functional, cell-based. As to conditions: Homo sapiens, A549, 72 h.
Description: Antiproliferative activity against human A549 cells assessed as cell growth inhibition incubated for 72 hrs by MTT assay
The test system of experiment [6] is HT-29. Briefly: Antiproliferative activity against human HT-29 cells assessed as cell growth inhibition incubated for 72 hrs by MTT assay. In kind it is functional, cell-based.
Experiment [7] deals with NCI-H460. Put plainly: Antiproliferative activity against human NCI-H460 cells assessed as cell growth inhibition incubated for 72 hrs by MTT assay. The conditions noted are these: NCI-H460, 72 h. The format is functional, cell-based.
In experiment [8] the target is T3, Vascular endothelial growth factor receptor 2 (Homo sapiens, UniProt P35968).
Experiment [9] has as its system MDA-MB-231. Briefly: cells. The conditions noted are these: Homo sapiens, MDA-MB-231, 72 h.
Description: Antiproliferative activity against human MDA-MB-231 cells assessed as cell growth inhibition incubated for 72 hrs by MTT assay
A short description of experiment [10]: cells. In kind it is functional, cell-based. As to conditions: Homo sapiens, HBE, 72 h.
Description: Antiproliferative activity against human HBE cells assessed as cell growth inhibition incubated for 72 hrs by MTT assay
For experiment [11], the system named is A-431. Briefly: cells. In kind it is functional, cell-based. The conditions noted are these: Homo sapiens, A-431, 72 h.
Description: Antiproliferative activity against human A-431 cells assessed as cell growth inhibition incubated for 72 hrs by MTT assay
Experiment [12] relates to HL-60. Briefly: Antiproliferative activity against human HL-60 cells assessed as cell growth inhibition incubated for 72 hrs by MTT assay. The format is functional, cell-based.
Experiment [13] has as its target T3, Vascular endothelial growth factor receptor 2. The source holds these as a separate data set.
Description: Inhibition of VEGFR2 (unknown origin)
Experiment [14] concerns the target T2, Epidermal growth factor receptor.
Experiment [15] deals with MRC5. Put plainly: Antiproliferative activity against human MRC5 cells assessed as cell growth inhibition incubated for 72 hrs by MTT assay. The format is functional, cell-based. As to conditions: MRC5, 72 h.
For experiment [16], the target named is T1, Receptor tyrosine-protein kinase erbB-2. Briefly: Inhibition of human HER2.
In experiment [17] the test system is MCF7. Briefly: Antiproliferative activity against human MCF7 cells assessed as cell growth inhibition incubated for 72 hrs by MTT assay. In kind it is functional, cell-based. The conditions noted are these: MCF7, 72 h.
The test system of experiment [18] is K562. Put plainly: Antiproliferative activity against human K562 cells assessed as cell growth inhibition incubated for 72 hrs by MTT assay. The format is functional, cell-based. The conditions noted are these: K562, 72 h.
In experiment [19] the test system is A549. Briefly: cells. The format is functional, cell-based. As to conditions: Homo sapiens, A549, 48 h.
Description: Antiproliferative activity against human A549 cells assessed as cell growth inhibition incubated for 48 hrs by MTT assay
Experiment [20] relates to HepG2. Briefly: cells. The conditions noted are these: Homo sapiens, HepG2, 48 h. In kind it is functional, cell-based.
Description: Antiproliferative activity against human HepG2 cells assessed as cell growth inhibition incubated for 48 hrs by MTT assay
The test system of experiment [21] is MDA-MB-231. Briefly: Antiproliferative activity against human MDA-MB-231 cells assessed as cell growth inhibition incubated for 48 hrs by MTT assay. The format is functional, cell-based. The conditions noted are these: MDA-MB-231, 48 h.
For experiment [22], the system named is CNE. Briefly: cells. In kind it is functional, cell-based. The conditions noted are these: Homo sapiens, 48 h.
Description: Antiproliferative activity against human CNE cells assessed as cell growth inhibition incubated for 48 hrs by MTT assay
The test system of experiment [23] is A549. Briefly: Radiosensitizing activity against human A549 cells assessed as radiosensitization ratio by MTT assay. The format is functional.
Experiment [24] has as its system SK-OV-3. Briefly: cells. The format is functional, cell-based. As to conditions: Homo sapiens, SK-OV-3, 48 h.
Description: Antiproliferative activity against human SK-OV-3 cells assessed as cell growth inhibition incubated for 48 hrs by MTT assay
The test system of experiment [25] is HT-29. Briefly: Antiproliferative activity against human HT-29 cells assessed as cell growth inhibition incubated for 72 hrs under hypoxia condition by SRB assay. In kind it is functional, cell-based. As to conditions: HT-29, 72 h.
Experiment [26] deals with A549. Put plainly: Antiproliferative activity against human A549 cells assessed as cell growth inhibition incubated for 72 hrs under hypoxia condition by SRB assay. The format is functional, cell-based. The conditions noted are these: A549, 72 h. (In general: The SRB assay estimates cell density from bound dye.)
Experiment [27] has as its system A549. Briefly: Antiproliferative activity against human A549 cells assessed as cell growth inhibition incubated for 72 hrs under normoxia condition by SRB assay. In kind it is functional, cell-based. As to conditions: A549, 72 h.
Experiment [28] deals with HT-29. Briefly: Antiproliferative activity against human HT-29 cells assessed as cell growth inhibition incubated for 72 hrs under normoxia condition by SRB assay. The conditions noted are these: HT-29, 72 h. The format is functional, cell-based.
In experiment [29] the test system is A549. Put plainly: cells. The conditions noted are these: Homo sapiens.
Description: Antiproliferative activity against human A549 cells assessed as cell growth inhibition by MTT assay
Experiment [30] concerns A549. Briefly: Antiproliferative activity against human A549 cells assessed as cell growth inhibition incubated for 24 hrs by MTT assay. The format is functional, cell-based. As to conditions: A549, 24 h.
The subject of experiment [31] is A-431. Put plainly: Antiproliferative activity against human A-431 cells assessed as cell growth inhibition incubated for 24 hrs by MTT assay. In kind it is functional.
In experiment [32] the target is T2, Epidermal growth factor receptor. Briefly: Inhibition of EGFR (unknown origin) incubated for 1 hrs by ELISA assay.
The test system of experiment [33] is MDA-MB-231. Briefly: Cytotoxicity against human MDA-MB-231 assessed as radio sensitizing effect incubated for 24 hrs in presence of gamma irradiation by MTT assay. The format is functional.
Experiment [34] deals with MDA-MB-231. Put plainly: Anticancer activity against human MDA-MB-231 cells assessed as cell growth inhibition incubated for 24 hrs by MTT assay. The conditions noted are these: MDA-MB-231, 24 h. The format is functional, cell-based.
The target in experiment [35] is T1, Receptor tyrosine-protein kinase erbB-2. Briefly: Inhibition of HER2 (unknown origin) incubated for 1 hrs by ELISA assay.

In general, IC50 refers to the concentration that gives 50% inhibition.

“And” between values parts separate entries of the source, which are not always exact repeats. Equal entries are not always repeated. Some results are limits rather than exact numbers.

T1 sequence (P04626 whole entry): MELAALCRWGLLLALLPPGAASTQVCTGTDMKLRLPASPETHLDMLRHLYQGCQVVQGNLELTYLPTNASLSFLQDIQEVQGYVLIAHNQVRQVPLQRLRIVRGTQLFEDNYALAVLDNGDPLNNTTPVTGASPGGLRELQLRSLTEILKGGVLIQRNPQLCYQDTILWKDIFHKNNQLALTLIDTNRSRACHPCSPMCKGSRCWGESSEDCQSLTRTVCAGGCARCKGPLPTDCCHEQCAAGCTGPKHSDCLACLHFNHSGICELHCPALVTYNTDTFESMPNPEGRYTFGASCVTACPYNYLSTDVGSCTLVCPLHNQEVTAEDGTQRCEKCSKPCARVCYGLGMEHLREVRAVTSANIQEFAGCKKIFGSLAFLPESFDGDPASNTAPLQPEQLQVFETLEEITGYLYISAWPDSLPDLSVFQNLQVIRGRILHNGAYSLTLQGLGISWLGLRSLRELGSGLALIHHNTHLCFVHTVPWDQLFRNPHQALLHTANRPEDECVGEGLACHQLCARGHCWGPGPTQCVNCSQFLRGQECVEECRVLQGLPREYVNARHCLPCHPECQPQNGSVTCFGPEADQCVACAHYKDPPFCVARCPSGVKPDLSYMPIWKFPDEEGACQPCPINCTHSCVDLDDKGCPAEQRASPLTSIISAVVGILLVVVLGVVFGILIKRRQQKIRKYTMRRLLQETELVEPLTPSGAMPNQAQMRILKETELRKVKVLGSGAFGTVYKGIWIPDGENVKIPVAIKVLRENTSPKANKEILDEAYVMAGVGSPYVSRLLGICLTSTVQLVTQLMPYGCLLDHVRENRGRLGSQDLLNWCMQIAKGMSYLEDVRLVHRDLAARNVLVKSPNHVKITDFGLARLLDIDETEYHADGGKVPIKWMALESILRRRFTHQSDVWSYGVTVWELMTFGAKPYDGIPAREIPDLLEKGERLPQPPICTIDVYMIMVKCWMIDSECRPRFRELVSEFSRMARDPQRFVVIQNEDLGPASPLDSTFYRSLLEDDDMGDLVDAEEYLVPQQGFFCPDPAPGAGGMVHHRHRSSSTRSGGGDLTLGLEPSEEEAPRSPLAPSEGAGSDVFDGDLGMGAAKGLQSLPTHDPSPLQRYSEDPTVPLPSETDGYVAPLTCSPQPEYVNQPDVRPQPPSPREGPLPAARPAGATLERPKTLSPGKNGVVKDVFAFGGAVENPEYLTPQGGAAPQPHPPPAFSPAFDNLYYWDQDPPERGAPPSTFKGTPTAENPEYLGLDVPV
T2 sequence (P00533 whole entry): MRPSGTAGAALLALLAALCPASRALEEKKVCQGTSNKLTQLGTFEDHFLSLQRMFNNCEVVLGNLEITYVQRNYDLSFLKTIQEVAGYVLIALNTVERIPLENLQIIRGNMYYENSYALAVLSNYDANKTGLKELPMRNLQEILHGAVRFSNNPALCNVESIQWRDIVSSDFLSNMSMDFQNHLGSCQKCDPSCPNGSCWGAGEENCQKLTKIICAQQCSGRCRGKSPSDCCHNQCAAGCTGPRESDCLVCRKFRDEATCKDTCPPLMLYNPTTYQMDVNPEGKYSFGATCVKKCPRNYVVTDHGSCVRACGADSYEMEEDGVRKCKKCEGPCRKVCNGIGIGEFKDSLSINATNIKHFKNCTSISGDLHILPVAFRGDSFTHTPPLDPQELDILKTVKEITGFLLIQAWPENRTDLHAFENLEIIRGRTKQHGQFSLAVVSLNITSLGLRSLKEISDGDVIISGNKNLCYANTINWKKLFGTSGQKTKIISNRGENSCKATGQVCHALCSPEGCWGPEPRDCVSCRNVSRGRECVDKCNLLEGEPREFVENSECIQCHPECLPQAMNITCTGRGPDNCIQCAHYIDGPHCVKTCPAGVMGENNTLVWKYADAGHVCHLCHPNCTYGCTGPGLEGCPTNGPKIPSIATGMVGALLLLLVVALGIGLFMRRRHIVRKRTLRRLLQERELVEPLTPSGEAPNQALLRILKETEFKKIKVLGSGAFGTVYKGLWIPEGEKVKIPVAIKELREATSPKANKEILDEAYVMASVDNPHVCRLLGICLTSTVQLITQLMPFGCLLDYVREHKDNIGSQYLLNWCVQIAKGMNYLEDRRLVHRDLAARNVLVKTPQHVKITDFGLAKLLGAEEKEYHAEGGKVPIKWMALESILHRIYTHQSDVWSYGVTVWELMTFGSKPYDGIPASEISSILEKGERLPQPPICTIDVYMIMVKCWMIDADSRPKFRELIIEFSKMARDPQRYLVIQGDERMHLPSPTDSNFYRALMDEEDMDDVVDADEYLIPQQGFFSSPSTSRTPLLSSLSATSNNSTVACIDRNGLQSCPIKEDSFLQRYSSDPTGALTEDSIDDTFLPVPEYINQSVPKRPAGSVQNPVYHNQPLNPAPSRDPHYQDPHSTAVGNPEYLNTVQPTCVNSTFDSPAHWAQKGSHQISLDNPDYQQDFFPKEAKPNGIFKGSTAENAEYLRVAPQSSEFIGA
T3 sequence (P35968 whole entry): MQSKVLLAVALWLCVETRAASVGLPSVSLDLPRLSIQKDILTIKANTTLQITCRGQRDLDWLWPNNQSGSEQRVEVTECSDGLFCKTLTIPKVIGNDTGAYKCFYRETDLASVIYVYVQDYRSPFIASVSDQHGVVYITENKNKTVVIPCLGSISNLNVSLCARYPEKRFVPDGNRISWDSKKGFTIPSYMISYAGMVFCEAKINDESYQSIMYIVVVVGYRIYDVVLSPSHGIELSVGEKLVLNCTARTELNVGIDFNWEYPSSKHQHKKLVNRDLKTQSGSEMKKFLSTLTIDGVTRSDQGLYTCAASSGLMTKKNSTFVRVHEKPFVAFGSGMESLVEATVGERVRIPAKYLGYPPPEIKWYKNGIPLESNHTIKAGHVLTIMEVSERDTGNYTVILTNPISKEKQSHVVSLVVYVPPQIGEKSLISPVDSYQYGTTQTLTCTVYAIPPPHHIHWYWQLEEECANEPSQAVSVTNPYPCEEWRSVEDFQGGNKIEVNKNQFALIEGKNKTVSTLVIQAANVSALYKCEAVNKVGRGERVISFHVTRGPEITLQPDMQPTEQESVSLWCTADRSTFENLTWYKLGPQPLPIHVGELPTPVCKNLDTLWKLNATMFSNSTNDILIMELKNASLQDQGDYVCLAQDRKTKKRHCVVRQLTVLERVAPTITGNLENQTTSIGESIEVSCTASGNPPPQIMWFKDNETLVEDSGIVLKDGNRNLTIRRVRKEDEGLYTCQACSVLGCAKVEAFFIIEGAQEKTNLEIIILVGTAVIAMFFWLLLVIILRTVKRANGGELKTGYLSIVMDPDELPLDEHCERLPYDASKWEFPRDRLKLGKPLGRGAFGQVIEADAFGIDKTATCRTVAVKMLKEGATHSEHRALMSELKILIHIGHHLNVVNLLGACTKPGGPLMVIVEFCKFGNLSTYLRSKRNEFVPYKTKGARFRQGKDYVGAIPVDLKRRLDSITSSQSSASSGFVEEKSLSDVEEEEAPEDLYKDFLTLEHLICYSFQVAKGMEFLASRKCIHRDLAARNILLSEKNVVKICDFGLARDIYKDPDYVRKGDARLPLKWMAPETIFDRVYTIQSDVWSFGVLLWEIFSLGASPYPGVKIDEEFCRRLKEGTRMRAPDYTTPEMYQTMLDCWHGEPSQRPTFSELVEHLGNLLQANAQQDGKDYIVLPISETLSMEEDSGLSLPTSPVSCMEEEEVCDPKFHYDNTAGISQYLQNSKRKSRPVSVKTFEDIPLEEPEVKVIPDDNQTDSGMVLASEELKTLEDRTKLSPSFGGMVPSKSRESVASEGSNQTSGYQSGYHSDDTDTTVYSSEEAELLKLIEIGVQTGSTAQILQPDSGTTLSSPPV

As to `CN(C)C/C=C/C(=O)Nc1cc2c(Nc3ccc(F)c(Cl)c3)ncnc2cc1O[C@H]1CCOC1` [AFATINIB], in experiment [1], the Activity was 13.53%.
Regarding `Cc1ccccc1NC(=O)CSc1nc2cc3ccccc3cc2c(=O)n1-c1ccc(S(N)(=O)=O)cc1`, the IC50 came to 21 nM in experiment [2], 12 nM in experiment [3] and 181 nM in experiment [4].
As to `Cc1cccc(Cl)c1NC(=O)Nc1ccc(-c2nc(NCCN(C)C)c3ccccc3n2)cc1`, the IC50 was 360 nM in experiment [5]; 150 nM in experiment [6] (Homo sapiens, HT-29, 72 h); 89 nM in experiment [7]; 93 nM in experiment [8]; 750 nM in [9].
On to `C=CC(=O)Nc1cccc(Nc2nc(Nc3ccc(N4CCN(C(C)=O)CC4)cc3OC)ncc2C(F)(F)F)c1` [ROCILETINIB], for which the IC50 in [5] is 6500 nM; in experiment [10], above 40000 nM; in [11], 1290 nM.
For the molecule `NS(=O)(=O)c1ccc(CCn2c(SCC(=O)Nc3ccc(Cl)cc3)nc3ccccc3c2=O)cc1`, the IC50 in experiment [12] is 410 nM and 2030 nM; in experiment [6] (Homo sapiens, HT-29, 72 h), 1430 nM; in [13], 390 nM; in experiment [14], 200 nM; in experiment [15], 3770 nM; in experiment [16], 170 nM. The IC50 in experiment [17] was determined as 1040 nM; in experiment [18] it was 2030 nM.
On to `CNC(=O)c1cc(Oc2ccc(NC(=O)Nc3ccc(Cl)c(C(F)(F)F)c3)cc2)ccn1` [SORAFENIB], for which the IC50 in experiment [5] stood at 4470 nM; in [6] (Homo sapiens, HT-29, 72 h), 2500 nM; in experiment [6] (ht-29) it was 3270 nM; in experiment [7], 2150 nM; in experiment [15] it was 24100 nM; in experiment [9] it was 3810 nM. Further, in [17], the IC50 was found to be 2500 nM.
As to `Cc1ccc(Nc2ncnc3ccc(NC(=O)c4cc(OCc5ccccc5)c5c(c4)C(=O)c4cccc(OCc6ccccc6)c4C5=O)cc23)cc1`, the IC50 in [19] amounted to 23300 nM; in [20] it was 34900 nM; in experiment [21] it was 3200 nM; in experiment [22] it was 2100 nM; in [24] it was 12500 nM. Besides, in experiment [23], the Ratio came to 1.88.
Consider `CN(C)C/C=C/C(=O)Nc1cc2c(N3CCc4ccccc43)ncnc2cc1O[C@@H]1CCOC1`, for which, in experiment [1], the Activity was determined as 14.59%.
For the molecule `COc1cc2ncnc(Nc3ccc(OCCn4ccnc4[N+](=O)[O-])c(Cl)c3)c2cc1OCCCN1CCOCC1`, the IC50 in [25] came to 1350 nM; in experiment [26], 1090 nM; in experiment [27], 1590 nM; in experiment [14], 120 nM; in [28], 2460 nM.
As for `CS(=O)(=O)CCNCc1ccc(-c2ccc3ncnc(Nc4ccc(OCc5cccc(F)c5)c(Cl)c4)c3c2)o1` [LAPATINIB], the IC50 is 8850 nM in experiment [25]; 13300 nM in experiment [26]; 11300 nM in experiment [27]; 6810 nM in [28]; 14900 nM in [29].
As for `Cc1ccc(NC(=O)CSc2nc3cc4ccccc4cc3c(=O)n2-c2ccc(S(N)(=O)=O)cc2)cc1`, the IC50 in experiment [2] came out at 21 nM; in [3], 9 nM; in [4], 105 nM.
Take `COc1cc2ncnc(NCc3ccc(Cl)s3)c2cc1OC`: the IC50 in [30] is above 50000 nM. The IC5 in experiment [31] worked out at 3.4 µM.
`CN1C(=O)c2ccc(NC(=O)CSc3nc4cc5ccccc5cc4c(=O)n3-c3ccc(S(N)(=O)=O)cc3)cc2C1=O`: the IC50 in [32] is 640 nM; in experiment [34], 500 nM; in experiment [35], 1320 nM. Besides, the Activity in [33] is 0.18 µM.
As to `CCc1cccc(NC(=O)CSc2nc3cc4ccccc4cc3c(=O)n2-c2ccc(S(N)(=O)=O)cc2)c1`, in experiment [4], the IC50 is 727 nM.
Regarding `O=C(O)c1cc(O)c2c(c1)C(=O)c1cccc(O)c1C2=O` [RHEIN], the figures for the IC50 in experiment [19] and in [20] were 138000 nM and 74600 nM, respectively.
